Assay results published in PubChem BioAssay AID1259407 (Chemical Carcinogenesis Research Information System (CCRIS), 2018).
Activity calls are given as the source filed them. How the calls were made is not given here.

Tested on: CCRIS mutagenicity, Ames/micronucleus/aberration tests
Assay: CCRIS mutagenicity studies
[1] = Test System: AMES SALMONELLA TYPHIMURIUM, Strain/Indicator: TA98, Metabolic Activation: NONE, Method: PREINCUBATION
[2] = Test System: AMES SALMONELLA TYPHIMURIUM, Strain/Indicator: TA100, Metabolic Activation: NONE, Method: PREINCUBATION

For `CC(=O)Nc1ccc(S(=O)(=O)Cl)cc1`, the mutagenic call [1] was “inactive; negative”, the mutagenic call (Test System: AMES SALMONELLA TYPHIMURIUM, Strain/Indicator: TA98, Metabolic Activation: RAT LIVER S-9, PHENOBARBITAL AND BETA-NAPHTHOFLAVONE, Method: PREINCUBATION) was “inactive; negative” and the mutagenic call [2] was “inactive; negative”. The mutagenic call (Test System: AMES SALMONELLA TYPHIMURIUM, Strain/Indicator: TA100, Metabolic Activation: RAT LIVER S-9, PHENOBARBITAL AND BETA-NAPHTHOFLAVONE, Method: PREINCUBATION) was “inactive; negative”, the mutagenic call (Test System: AMES SALMONELLA TYPHIMURIUM, Strain/Indicator: TA102, Metabolic Activation: NONE, Method: PREINCUBATION) was “inactive; negative” and the mutagenic call (Test System: AMES SALMONELLA TYPHIMURIUM, Strain/Indicator: TA102, Metabolic Activation: RAT LIVER S-9, PHENOBARBITAL AND BETA-NAPHTHOFLAVONE, Method: PREINCUBATION) was “inactive; negative”. The mutagenic call (Test System: AMES SALMONELLA TYPHIMURIUM, Strain/Indicator: TA104, Metabolic Activation: NONE, Method: PREINCUBATION) was “inactive; negative”, the mutagenic call (Test System: AMES SALMONELLA TYPHIMURIUM, Strain/Indicator: TA104, Metabolic Activation: RAT LIVER S-9, PHENOBARBITAL AND BETA-NAPHTHOFLAVONE, Method: PREINCUBATION) was “inactive; negative” and the mutagenic call (Test System: AMES SALMONELLA TYPHIMURIUM, Strain/Indicator: TA1535, Metabolic Activation: NONE, Method: PREINCUBATION) was “inactive; negative”. The mutagenic call (Test System: AMES SALMONELLA TYPHIMURIUM, Strain/Indicator: TA1535, Metabolic Activation: RAT LIVER S-9, PHENOBARBITAL AND BETA-NAPHTHOFLAVONE, Method: PREINCUBATION) was “inactive; negative”, the mutagenic call (Test System: AMES SALMONELLA TYPHIMURIUM, Strain/Indicator: TA1537, Metabolic Activation: NONE, Method: PREINCUBATION) was “inactive; negative” and the mutagenic call (Test System: AMES SALMONELLA TYPHIMURIUM, Strain/Indicator: TA1537, Metabolic Activation: RAT LIVER S-9, PHENOBARBITAL AND BETA-NAPHTHOFLAVONE, Method: PREINCUBATION) was “inactive; negative”. For the same compound, the mutagenic call (Test System: E.COLI, Strain/Indicator: WP2UVRA/PKM101, Metabolic Activation: NONE, Method: PREINCUBATION) was “inactive; negative”, the mutagenic call (Test System: E.COLI, Strain/Indicator: WP2UVRA/PKM101, Metabolic Activation: RAT LIVER S-9, PHENOBARBITAL AND BETA-NAPHTHOFLAVONE, Method: PREINCUBATION) was “inactive; negative” and the mutagenic call (Test System: E.COLI, Strain/Indicator: WP2UVRA, Metabolic Activation: NONE, Method: PREINCUBATION) was “inactive; negative”. The mutagenic call (Test System: E.COLI, Strain/Indicator: WP2UVRA, Metabolic Activation: RAT LIVER S-9, PHENOBARBITAL AND BETA-NAPHTHOFLAVONE, Method: PREINCUBATION) was “inactive; negative”.

`Cc1cc2ncccc2c2ncn(C)c12` was tested, and the mutagenic call [1] was “inactive; negative”, the mutagenic call (Test System: AMES SALMONELLA TYPHIMURIUM, Strain/Indicator: TA98, Metabolic Activation: RAT, LIVER, S-9, AROCLOR 1254, Method: PREINCUBATION) was “inactive; negative” and the mutagenic call [2] was “inactive; negative”. For the same compound, the mutagenic call (Test System: AMES SALMONELLA TYPHIMURIUM, Strain/Indicator: TA100, Metabolic Activation: RAT, LIVER, S-9, AROCLOR 1254, Method: PREINCUBATION) was “inactive; negative”.

In the case of `C[n+]1cccc2c1C=C[C@H]1O[C@@H]21`, the mutagenic call (Test System: AMES SALMONELLA TYPHIMURIUM, Strain/Indicator: TA100, Metabolic Activation: NONE, Method: STANDARD PLATE) is reported as “inactive; negative” and the mutagenic call (Test System: AMES SALMONELLA TYPHIMURIUM, Strain/Indicator: TA100, Metabolic Activation: RAT, LIVER, S-9, AROCLOR 1254 (20%), Method: STANDARD PLATE) is reported as “active; positive”.
